Article PMC10290954 (Nature Metabolism, 2023)

How the values were obtained:
mouse GIP receptor [1] = target: T1, mouse GIP receptor (Mus musculus, UniProt Q0P543); experiment: [35S]GTPγS binding, mouse GIPR; format: biochemical; parameters: expressed in transfected cells; host or cells: low-receptor-density clonal cell lines; conditions: mGIPR GTPgS
T1 sequence (Q0P543 19-460): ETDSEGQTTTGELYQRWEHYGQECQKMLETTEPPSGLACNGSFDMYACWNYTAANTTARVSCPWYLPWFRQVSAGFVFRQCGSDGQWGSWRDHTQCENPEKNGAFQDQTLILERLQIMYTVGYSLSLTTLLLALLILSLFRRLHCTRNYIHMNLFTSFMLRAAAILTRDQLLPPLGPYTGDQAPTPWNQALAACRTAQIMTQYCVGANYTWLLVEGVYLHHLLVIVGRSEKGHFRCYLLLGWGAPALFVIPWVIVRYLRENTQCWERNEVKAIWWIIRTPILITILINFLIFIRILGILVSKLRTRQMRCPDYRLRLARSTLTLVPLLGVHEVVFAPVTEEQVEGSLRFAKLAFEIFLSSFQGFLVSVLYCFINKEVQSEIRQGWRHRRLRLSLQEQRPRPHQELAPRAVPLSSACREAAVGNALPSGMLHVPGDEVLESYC
Protocol: (§1) Methods for these assays have been previously described. In brief, for GTPγs binding, the potency of ligands to stimulate receptor-dependent elevation of the GTPγS-bound Gαs subunit was determined using membrane preparations from low-receptor-density receptor clonal cell lines. Reactions were incubated for 30 min at room temperature in white, clear-bottom microtiter plates, and per cent of the maximal response was calculated using control wells as a reference. Relative EC50 values were derived by nonlinear regression analysis using the per cent response versus the concentration of ligand and fitted to a four-parameter logistic equation using GraphPad Prism 7 software. For cAMP assays, kinetic cAMP assays were performed in low-density receptor cell clones transfected with the Glosensor 22 F vector (Promega). Cells were equilibrated for 5–20 min and then 20 μl of 10× ligand was added and a luminescence time course was collected.

mouse GIP receptor [2] = target: T1, mouse GIP receptor; experiment: cAMP generation (Glosensor), mouse GIPR; format: cell-based; parameters: expressed in transfected cells; host or cells: low-receptor-density clonal cell lines; conditions: for HillSlope / Span (four parameter fit) / Top (four parameter fit) / Bottom (four parameter fit): mGIP-R HEK-293 cells, cAMP formation; for HillSlope: four parameter fit - normalized; for Span (four parameter fit) / Top (four parameter fit) / Bottom (four parameter fit): max signal = 100 nM human GIP(1-42)NH2, normalized
Protocol: as §1, with “collected. Ligand (10×) was titrated by manual serial dilution in DMSO followed by step-down into assay buffer.” for “collected.”

human islets = experiment: Human islet perifusion, insulin secretion with Ex9 or hGIP(3-30) (Extended Data Fig. 2); format: cell-based; conditions: two donor sets, 30 nM tirzepatide, antagonist 1 μM
Protocol: Human islets were obtained from both the Alberta Diabetes Institute and the Integrated Islet Distribution Program. All islets were obtained from consenting donors. Details for the general perifusion protocol have been previously described[21] and are similar to the mouse perifusion protocol. […] Each set of human islets consisted of n = 3 for each condition. These were averaged to generate a single data point (Fig. 2c). Insulin values were measured with a Lumit insulin immunoassay (Promega) using an EnVision plate reader (PerkinElmer). For the glucagon secretion experiments (Fig. 3), the average glucagon values were calculated during control (minutes 35–45) and stimulated (minutes 55–65) conditions. All peptides were used at 30 nM concentrations based on previous work[16]. Amino acids were used at concentrations of 3 mM based on previous work[11]. Glucagon was measured with a Lumit Glucagon Immunoassay Kit (cat. no. CS3037A02; Promega) using an EnVision plate reader (PerkinElmer). Somatostatin was measured with an ELISA assay (cat. no. FEK-060-14; Phoenix Pharmaceuticals). All data are expressed as the measured concentration relative to both flow rate and islet number (insulin, ng ml^–1 × (1/200 µl ml^–1) × (1/75 islets); glucagon, pM × (1/200 µl ml^–1) × (1/75 islets); somatostatin, pg ml^–1 × (1/200 µl ml^–1) × (1/75 islets))[49]. Human pancreatic islets and pancreas tissue were isolated from deceased donors under ethical approval from the Human Research Ethics Board of the University of Alberta (Pro00013094, Pro00001754) and obtained from the NIDDK-funded Integrated Islet Distribution Program (IIDP) (RRID: SCR _014387). All donors’ families gave informed consent for the use of pancreatic tissue in research and were not financially compensated.
The integrated area under the curve (iAUC) was calculated for both glucose and tirzepatide stimulated insulin secretion using the value of the first time point as the baseline. All values are mean + /- SEM, n = 3/group. A one-way ANOVA with Tukey’s posthoc test was used. Source data

[3] = target: T2, mouse GIP receptor (mGIPR), transiently expressed in HEK293T cells for BRET (mouse) (UniProt Q0P543)
T2 sequence: T1 sequence (Q0P543 19-460)

[4] = target: T3, mouse GIP receptor (mGIPR), cloned, in membranes of HEK cells (mouse) (UniProt Q0P543)
T3 sequence: T1 sequence (Q0P543 19-460)

## CC[C@H](C)[C@H](NC(=O)[C@H](CO)NC(=O)[C@H](Cc1ccc(O)cc1)NC(=O)[C@H](CC(=O)O)NC(=O)[C@H](CO)NC(=O)[C@@H](NC(=O)[C@H](Cc1ccccc1)NC(=O)[C@@H](NC(=O)CNC(=O)[C@H](CCC(=O)O)NC(=O)[C@H](C)NC(=O)[C@@H](N)Cc1ccc(O)cc1)[C@@H](C)O)[C@@H](C)CC)C(=O)N[C@@H](C)C(=O)N[C@@H](CCSC)C(=O)N[C@@H](CC(=O)O)C(=O)N[C@@H](CCCCN)C(=O)N[C@H](C(=O)N[C@@H](Cc1c[nH]cn1)C(=O)N[C@@H](CCC(N)=O)C(=O)N[C@@H](CCC(N)=O)C(=O)N[C@@H](CC(=O)O)C(=O)N[C@@H](Cc1ccccc1)C(=O)N[C@H](C(=O)N[C@@H](CC(N)=O)C(=O)N[C@@H](Cc1c[nH]c2ccccc12)C(=O)N[C@@H](CC(C)C)C(=O)N[C@@H](CC(C)C)C(=O)N[C@@H](C)C(=O)N[C@@H](CCC(N)=O)C(=O)N[C@@H](CCCCN)C(=O)NCC(=O)N[C@@H](CCCCN)C(=O)N[C@@H](CCCCN)C(=O)N[C@@H](CC(N)=O)C(=O)N[C@@H](CC(=O)O)C(=O)N[C@@H](Cc1c[nH]c2ccccc12)C(=O)N[C@@H](CCCCN)C(=O)N[C@@H](Cc1c[nH]cn1)C(=O)N[C@@H](CC(N)=O)C(=O)N[C@H](C(=O)N[C@H](C(=O)N[C@@H](CCC(N)=O)C(N)=O)[C@@H](C)O)[C@@H](C)CC)C(C)C)[C@@H](C)CC [hGIP]
Mouse GIP receptor [1]; run of 2019-03-15
  Emax: 91.9%
Mouse GIP receptor [1]; run of 2019-04-02
  Emax: 91.5%
Mouse GIP receptor [1]; run of 2019-06-28
  Emax: 93.8%
Mouse GIP receptor [1]; run of 2022-02-17
  Emax: 93.1%

## CC[C@H](C)[C@H](NC(=O)[C@H](CO)NC(=O)[C@H](Cc1ccc(O)cc1)NC(=O)[C@H](CC(=O)O)NC(=O)[C@H](CO)NC(=O)[C@@H](NC(=O)[C@H](Cc1ccccc1)NC(=O)[C@@H](NC(=O)CNC(=O)[C@H](CCC(=O)O)NC(=O)[C@H](C)NC(=O)[C@@H](N)Cc1ccc(O)cc1)[C@@H](C)O)[C@@H](C)CC)C(=O)N[C@@H](C)C(=O)N[C@@H](CCSC)C(=O)N[C@@H](CC(=O)O)C(=O)N[C@@H](CCCCN)C(=O)N[C@H](C(=O)N[C@@H](CCCNC(=N)N)C(=O)N[C@@H](CCC(N)=O)C(=O)N[C@@H](CCC(N)=O)C(=O)N[C@@H](CC(=O)O)C(=O)N[C@@H](Cc1ccccc1)C(=O)N[C@H](C(=O)N[C@@H](CC(N)=O)C(=O)N[C@@H](Cc1c[nH]c2ccccc12)C(=O)N[C@@H](CC(C)C)C(=O)N[C@@H](CC(C)C)C(=O)N[C@@H](C)C(=O)N[C@@H](CCC(N)=O)C(=O)N[C@@H](CCCNC(=N)N)C(=O)NCC(=O)N[C@@H](CCCCN)C(=O)N[C@@H](CCCCN)C(=O)N[C@@H](CO)C(=O)N[C@@H](CC(=O)O)C(=O)N[C@@H](Cc1c[nH]c2ccccc12)C(=O)N[C@@H](CCCCN)C(=O)N[C@@H](Cc1c[nH]cn1)C(=O)N[C@@H](CC(N)=O)C(=O)N[C@H](C(=O)N[C@H](C(=O)N[C@@H](CCC(N)=O)C(N)=O)[C@@H](C)O)[C@@H](C)CC)C(C)C)[C@@H](C)CC [mouse GIP(1-42)NH2]
Mouse GIP receptor [2]; HEK293, read-out: Arthmetic Mean Emax
  Emax: 103%
Mouse GIP receptor [2]; run 2022-10-04, replicate 1
  HillSlope: 0.8118
  Span (four parameter fit): 112.9 Percent Max-Min
  Top (four parameter fit): 112.9 Percent Max-Min
Mouse GIP receptor [2]; run 2022-10-04, replicate 2
  HillSlope: 0.9861
  Span (four parameter fit): 111.3 Percent Max-Min
  Top (four parameter fit): 106.4 Percent Max-Min
Mouse GIP receptor [2]; run 2022-10-06, replicate 1
  HillSlope: 0.7723
  Bottom (four parameter fit): -5.431 Percent Max-Min
  Span (four parameter fit): 105.7 Percent Max-Min
  Top (four parameter fit): 100.3 Percent Max-Min
Mouse GIP receptor [2]; run 2022-10-06, replicate 2
  HillSlope: 0.9288
  Bottom (four parameter fit): -2.463 Percent Max-Min
  Span (four parameter fit): 102 Percent Max-Min
  Top (four parameter fit): 99.51 Percent Max-Min
Mouse GIP receptor [2]; run 2022-10-12
  HillSlope: 1.095
  Bottom (four parameter fit): -1.282 Percent Max-Min
  Span (four parameter fit): 97.15 Percent Max-Min
  Top (four parameter fit): 95.87 Percent Max-Min

## hGIP(3-30): a different GIPR antagonist that has been previously characterized (ref 27) (EGTFISDYSIAMDKIHQQDFVNWLLAQK; Gastric inhibitory polypeptide; UniProt P09681 54-81, looked up, fragment)
Human islets
  Effect on tirzepatide-stimulated insulin secretion: A similar outcome

## human glucose-dependent insulinotropic polypeptide (hGIP) (from UniProt P09681 52-93)
[3]
  Gs recruitment (ligand-induced BRET), EC50: 153 nM
  Gs recruitment (ligand-induced BRET), Emax: 101%
[4]
  [35S]GTPγS binding (G-protein activation), EC50: 0.735 nM
  [35S]GTPγS binding (G-protein activation), Emax: 96.7%
  cAMP generation, EC50: 46 pM
